Experimental data published in patent US10793525B2, “13-cis-RAMBA retinamides that degrade MNKs for treating cancer” (UNIVERSITY OF MARYLAND, BALTIMORE, priority 2014, dated 2020).

What was measured:
[1] = system: SKBR-3 human breast cancer cells; experiment: MTT cell proliferation assay, SKBR-3; format: cell-based; conditions: SK-BR-3, SKBR-3 cells, SEM < 10%, read-out: GI50s SKBR-3
From the text: (§1) MCF-7, MDA-MB-231, MDA-MB-468 and SKBR-3 human breast cancer cells and LNCaP, PC-3, and CWR22Rv1 human prostate carcinoma cells (American Type Culture Collection, Manassas, Va., USA) were maintained in RPMI 1640 media (Gibco-Life Technologies, Grand Island, N.Y., USA) supplemented with 10% fetal bovine serum and 1% penicillin/streptomycin. Western blotting was done as mentioned previously,^8, 13b using the following antibodies: AR, Bad, Bax, Bcl-2, eIF4E, Mnk1, Mnk-2, N-cadherin, PARP, peIF4E^ser209 purchased from Cell Signaling Technology, Danvers, Mass., USA. Anti-Mnk2 was purchased from Sigma-Aldrich and normal rabbit IgG, cyclin D1 was from Santa Cruz Biotechnology, CA, USA.
(§2) Cells were plated (2500 cells/well) in 96 well plates and treated with or without specified compounds as described previously.^8a, 12b
(§3) The clinically relevant retinoids, ATRA and 4-HPR and the Mnk inhibitor, cercosporamide were used as comparators in the assays.

[2] = system: MDA-MB-468 human breast cancer cells; experiment: MTT cell proliferation assay, MDA-MB-468; format: cell-based; conditions: MDA-MB-468 cells, SEM < 10%, read-out: GI50s MDA-MB-468
From the text: as §1, §2, §3

[3] = system: MCF-7 human breast cancer cells; experiment: MTT cell proliferation assay, MCF-7; format: cell-based; conditions: Homo sapiens, MCF7; MCF-7 cells, MTT, SEM < 10%; read-out: GI50s MCF-7
From the text: as §1, §2, §3

[4] = system: Mnk1 and 2, peIF4E, eIF4E and cPARP; experiment: Western blot of lysates from MCF-7, MDA-MB-231 and MDA-MB-468 cells; format: cell-based, human; conditions: MCF-7, MDA-MB-231, MDA-MB-468 cells, 24 hours
From the text: as §1
As we previously reported, the anti-proliferative effects of the 1st generation MNKDAs in BC cells was due to degradation of Mnk1/2 with subsequent depletion of peIF4E and induction of apoptosis.^8a To determine if these compounds modulate Mnk1/2 and related oncogenic proteins, the inventors performed western blot of lysates from MCF-7, MDA-MB-231 and MDA-MB-468 human breast cancer cells treated with Compounds 16, 20, and 22, or with vehicle (DMSO, negative control), or Compound 6 (positive control). Equal protein concentrations from MCF-7 (FIG. 3A), MDA-MB-231 (FIG. 3B) and MDA-MB-468 (FIG. 3C) cells treated for 24 hours with Compounds 16, 20 and 22 at the various concentrations as indicated and Compound 6 (20 μmol/L) were separated by SDS-PAGE and western blots probed with antibodies to Mnk1 and 2, peIF4E, eIF4E and cPARP. Vehicle treated cells were included as control and all blots were reprobed for GAPDH for loading control.

[5] = system: Mnk-1, peIF4E and their downstream targets; experiment: Molecular analysis of MDA-MB-231 tumors; format: in vivo; conditions: MDA-MB-231 tumors from treated mice
From the text: To assess their in vivo mode of action, we evaluated the effects of Compounds 20 and 22 on Mnk-1, peIF4E and their downstream targets.

[6] = system: CWR22Rv1 human prostate carcinoma cells; experiment: MTT cell proliferation assay, CWR22Rv1; format: cell-based; conditions: SEM < 10%, read-out: GI50s CWR22Rv1
From the text: as §1, §2, §3
The PC-3 cell line was the least sensitive to all the compounds tested.

[7] = system: LNCaP cells; experiment: MTT viability of LNCaP cells with AR and/or Mnk1 siRNA knockdown; format: cell-based, human
Experimental: siRNA (100 nM) was transfected into LNCaP cells using Lipofectamine® 2000 Transfection reagent (Invitrogen) as per manufacturer's protocol. Protein silencing was confirmed by immunoblot analysis. For cell growth assay experiments, transfection complex were removed after 18 h, cells were washed twice with PBS and replaced with growth medium. 24 h later drug was added and harvested after 72 h. For Western blot experiment, transfection complexes were washed off after 18 h and replaced with phenol free media for 24 h. Cells were then treated with 20 μM of VNLG-152 for an additional 24 h and cells were lysed using RIPA lysis buffer.^8b, 27 Luciferase assay was conducted in LNCaP cells using the Dual Luciferase kit (Promega) as described earlier.^8b, 13b
To confirm whether AR and Mnk1 are the major anti-cancer targets of these compounds on LNCaP cells, the percentage of cell survival in LNCaP cells was analyzed by MTT assay following transient transfection with AR siRNA and/or Mnk1 siRNA for 18 hours.

CC1=C(/C=C/C(C)=C/C=C/C(C)=C\C(=O)Nc2cccc(F)c2)C(C)(C)CCC1n1ccnc1 (stereo not drawn) [Compound 20, (2Z,4E,6E,8E)-9-(3-(1H-imidazol-1-yl)-2,6,6-trimethylcyclohex-1-en-1-yl)-N-(3-fluorophenyl)-3,7-dimethylnona-2,4,6,8-tetraenamide]
IC50 [1]: 17 µM | IC50 [2]: 6.76 µM | IC50 [3]: 5.69 µM | expression of total eIF4E [4]: no noticeable effects | expressions of Mnk1, Mnk2 and peIF4E [4]: significantly and dose-dependently, reduced | formation of c-PARP (apoptosis) [4]: dose-dependent formation of c-PARP | Mnk1/2, peIF4E, cyclin D1 and Bcl-2 in tumors [5]: depletion | pro-apoptotic proteins Bad and Bax in tumors [5]: up-regulation | IC50 [6]: 2.04 µM | cell viability, un-transfected LNCaP cells ([7]; 5 μM, 72 hours, MTT): robust reduction in cell viability | cell viability, LNCaP cells harboring AR or Mnk1 knockdown ([7]; 5 μM, compared to siRNA alone treated counterparts): sensible decrease in cell viability | cell viability, LNCaP cells with double knockdown of AR and Mnk1 ([7]; compared to cells co-treated with Mnk1 and AR siRNA): did not show any significant decrease in cell viability
